Experimental data as given in the CheMixHub ionic liquid set.

Assay: xn = mol fraction of the nth substance listed

CCCCCCCCCCCCCCn1cc[n+](C)c1.[Br-] + O
electrical conductivity [S/m], 101 kPa, frequency 0.001 MHz
Settings	298.15 K	308.15 K	318.15 K
x1 = 4.74e-06	0.00249	0.00401	0.00409
x1 = 9.35e-06	0.00459	0.00671	0.00708
x1 = 1.386e-05	0.0065	0.0093	0.0101
x1 = 1.825e-05	0.00834	0.011	0.0127
x1 = 2.252e-05	0.0101	0.0135	0.0154
x1 = 2.669e-05	0.0119	0.0154	0.0182
x1 = 3.076e-05	0.0136	0.0173	0.0206
x1 = 3.474e-05	0.0152	0.0199	0.0232
x1 = 3.862e-05	0.0167	0.0218	0.0253
x1 = 4.24e-05	0.0183	0.0238	0.028
x1 = 4.613e-05	0.0192	0.0252	0.0303
x1 = 4.973e-05	0.0199	0.0265	0.0322
x1 = 5.334e-05	0.0204	0.0273	0.0335
x1 = 5.676e-05	0.0209	0.0282	0.0345
x1 = 6e-05	0.0213	0.0288	0.0356
x1 = 6.343e-05	0.0217	0.0294	0.0365
x1 = 6.667e-05	0.0221	0.03	0.0372
x1 = 6.973e-05	0.0225	0.0305	0.0377
x1 = 7.28e-05	0.0229	0.0311	0.0383
x1 = 7.586e-05	0.0233	0.0316	0.0389
x1 = 7.892e-05	0.0236	0.0321	0.0396
x1 = 8.18e-05	0.024	0.0326	0.0408
x1 = 8.451e-05	0.0243	0.0329	0.0414
x1 = 8.739e-05	0.0246	0.0333	0.0418

CCCCO + CCCC[n+]1ccn(C)c1.O=S(=O)([N-]S(=O)(=O)C(F)(F)F)C(F)(F)F
Settings	viscosity [mPa·s]
298 K, 100 kPa, x2 = 0	2.578

CCOS(=O)(=O)[O-].CC[N+]1(C)CCOCC1 + O
101 kPa
Settings	viscosity [mPa·s]
313.15 K, x2 = 0.193	750
333.15 K, x2 = 0.3681	81
333.15 K, x2 = 0.7786	6.7
343.15 K, x2 = 0.6835	9.5

CCCCO + CC[n+]1ccn(CCOC)c1.N#C[S-]
100 kPa, x2 = 0
Settings	viscosity [mPa·s]
288.15 K	3.36
293.15 K	2.94
298.15 K	2.58
303.15 K	2.27
308.15 K	2.01
313.15 K	1.78
318.15 K	1.585

CCCCCCCCn1cc[n+](C)c1.F[B-](F)(F)F + CCCOC(C)=O
298.15 K, 101 kPa
Settings	viscosity [mPa·s]
x2 = 0.3984	44.84
x2 = 0.4496	33.85
x2 = 0.5551	18.72

CCCC[n+]1ccn(C)c1.O=S(=O)([O-])C(F)(F)F + CS(C)=O + OCCO
viscosity [mPa·s], 100 kPa
Settings	298.15 K	303.15 K	308.15 K	313.15 K	318.15 K	323.15 K
x1 = 0.0301, x2 = 0.903	3.07	2.75	2.47	2.25	2.04	1.86
x1 = 0.0698, x2 = 0.8409	3.41	3.16	2.83	2.56	2.32	2.12
x1 = 0.1006, x2 = 0.7931	4.04	3.69	3.29	2.96	2.67	2.43
x1 = 0.1311, x2 = 0.7537	5.33	4.67	4.14	3.69	3.31	3
x1 = 0.1702, x2 = 0.7004	6.5	5.61	4.93	4.37	3.9	3.51
x1 = 0.2067, x2 = 0.6494	8.13	6.91	6.04	5.31	4.71	4.21
x1 = 0.2329, x2 = 0.603	9	7.8	6.78	5.95	5.26	4.68
x1 = 0.2768, x2 = 0.5373	11.8	9.8	8.47	7.38	6.48	5.74
x1 = 0.3089, x2 = 0.4851	13.6	11.2	9.67	8.39	7.35	6.48
x1 = 0.3348, x2 = 0.4441	15.1	12.1	10.4	8.97	7.83	6.89
x1 = 0.3723, x2 = 0.3876	17.3	14.2	12.2	10.5	9.13	8
x1 = 0.4022, x2 = 0.3357	19	15.7	13.4	11.5	10	8.73
x1 = 0.4355, x2 = 0.2923	21.3	17.9	15.1	13	11.2	9.82
x1 = 0.473, x2 = 0.2581	23.3	19.3	16.3	14	12.1	10.5
x1 = 0.5076, x2 = 0.2336	25.5	21.2	17.9	15.2	13.1	11.4
x1 = 0.5442, x2 = 0.2004	27.9	23.2	19.6	16.6	14.3	12.4
x1 = 0.5775, x2 = 0.1858	30.3	25.2	21.2	18	15.4	13.4
x1 = 0.6051, x2 = 0.18	32.5	26.9	22.6	19.2	16.4	14.2
x1 = 0.6226, x2 = 0.1647	33.8	27.8	23.3	19.7	16.9	14.6
x1 = 0.6651, x2 = 0.1526	37.8	31	26.1	22	18.8	16.2
x1 = 0.6961, x2 = 0.1474	41.2	33.5	28.2	23.8	20.3	17.5

CCCC[N+]1(C)CCCC1.O=S(=O)([N-]S(=O)(=O)C(F)(F)F)C(F)(F)F + O=C1CCCO1
100 kPa
Settings	electrical conductivity [S/m]	viscosity [mPa·s]
303.15 K, x2 = 0.2019	0.461	36.7
308.15 K, x2 = 0.1075	0.459	39.2
308.15 K, x2 = 0.3004	0.638	23.93
308.15 K, x2 = 0.9498	1.31	–
313.15 K, x2 = 0.7009	1.67	5.75
313.15 K, x2 = 0.9498	1.41	–
318.15 K, x2 = 0.2019	0.705	22.28
318.15 K, x2 = 0.8509	2.23	–
318.15 K, x2 = 0.9498	1.5	–
323.15 K, x2 = 0.3004	0.905	15.24
323.15 K, x2 = 0.5999	1.57	6.44
323.15 K, x2 = 0.7009	1.98	4.7
323.15 K, x2 = 0.9498	1.6	–

CCCC[n+]1ccn(C)c1.COP(=O)([O-])OC + CCCCCC(=O)O.CCCCCC(=O)[O-].CC[NH+](CC)CCO
101 kPa, x2 = 0
Settings	viscosity [mPa·s]
298.15 K	609
303.15 K	426
318.15 K	168.9
333.15 K	79.9
358.15 K	30.38
363.15 K	25.86

CCCC[n+]1ccn(C)c1.COP(=O)([O-])OC + CC(=O)[O-].CCCC[NH2+]CCO
101 kPa, x2 = 0
Settings	viscosity [mPa·s]
278.15 K	3503
283.15 K	2142
288.15 K	1361
293.15 K	895
298.15 K	609
303.15 K	426
308.15 K	305.8
313.15 K	224.9
318.15 K	168.9
323.15 K	129.4
328.15 K	100.9
333.15 K	79.9
338.15 K	64.25
343.15 K	52.35
348.15 K	43.18
353.15 K	36.02
358.15 K	30.38
363.15 K	25.86
368.15 K	22.22
373.15 K	19.25

CCCC[n+]1ccn(C)c1.[Cl-] + OC[C@H]1O[C@@](CO)(O[C@H]2O[C@H](CO)[C@@H](O)[C@H](O)[C@H]2O)[C@@H](O)[C@@H]1O + O
298.15 K, 101.3 kPa
Settings	electrical conductivity [S/m]
x2 = 0, x1 = 8.71e-06	0.00583
x2 = 0, x1 = 1.208e-05	0.00794
x2 = 0, x1 = 1.485e-05	0.00965
x2 = 0, x1 = 1.707e-05	0.01101
x2 = 0, x1 = 1.937e-05	0.01241
x2 = 0, x1 = 2.164e-05	0.0138
x2 = 0, x1 = 2.397e-05	0.0152
x2 = 0, x1 = 2.6e-05	0.0164
x2 = 0, x1 = 2.824e-05	0.0177
x2 = 0, x1 = 3.029e-05	0.019
x2 = 0.003591, x1 = 1.096e-05	0.00618
x2 = 0.003591, x1 = 1.434e-05	0.00795
x2 = 0.003591, x1 = 1.771e-05	0.0097
x2 = 0.003591, x1 = 2.081e-05	0.0113
x2 = 0.003591, x1 = 2.41e-05	0.013
x2 = 0.003591, x1 = 2.709e-05	0.0145
x2 = 0.003591, x1 = 3.023e-05	0.01612
x2 = 0.003591, x1 = 3.313e-05	0.0176
x2 = 0.003591, x1 = 3.593e-05	0.019
x2 = 0.007156, x1 = 8.21e-06	0.00407
x2 = 0.007156, x1 = 1.202e-05	0.00576
x2 = 0.007156, x1 = 1.591e-05	0.00748
x2 = 0.007156, x1 = 1.939e-05	0.009
x2 = 0.007156, x1 = 2.274e-05	0.0105
x2 = 0.007156, x1 = 2.585e-05	0.0118
x2 = 0.007156, x1 = 2.894e-05	0.01315
x2 = 0.007156, x1 = 3.183e-05	0.01439
x2 = 0.007156, x1 = 3.476e-05	0.0156
x2 = 0.007156, x1 = 3.761e-05	0.0169
x2 = 0.0107, x1 = 9.71e-06	0.00386
x2 = 0.0107, x1 = 2.409e-05	0.00888
x2 = 0.0107, x1 = 3.038e-05	0.01101
x2 = 0.0107, x1 = 3.477e-05	0.0125
x2 = 0.0107, x1 = 3.967e-05	0.01408
x2 = 0.0107, x1 = 4.399e-05	0.0155
x2 = 0.0107, x1 = 4.83e-05	0.0169
x2 = 0.0107, x1 = 5.264e-05	0.01825
x2 = 0.0107, x1 = 5.673e-05	0.0195
x2 = 0.01421, x1 = 1.037e-05	0.00348
x2 = 0.01421, x1 = 1.591e-05	0.00514
x2 = 0.01421, x1 = 2.109e-05	0.00667
x2 = 0.01421, x1 = 2.647e-05	0.00823
x2 = 0.01421, x1 = 3.163e-05	0.00971
x2 = 0.01421, x1 = 3.643e-05	0.01107
x2 = 0.01421, x1 = 4.107e-05	0.01237
x2 = 0.01421, x1 = 4.582e-05	0.0137
x2 = 0.01421, x1 = 5.048e-05	0.015
x2 = 0.01421, x1 = 5.498e-05	0.01621
x2 = 0.01421, x1 = 5.983e-05	0.0175
x2 = 0.0177, x1 = 1.237e-05	0.00351
x2 = 0.0177, x1 = 1.842e-05	0.00504
x2 = 0.0177, x1 = 2.347e-05	0.00631
x2 = 0.0177, x1 = 2.887e-05	0.00764
x2 = 0.0177, x1 = 3.44e-05	0.00899
x2 = 0.0177, x1 = 4.072e-05	0.0105
x2 = 0.0177, x1 = 4.633e-05	0.0118
x2 = 0.0177, x1 = 5.265e-05	0.01333
x2 = 0.0177, x1 = 5.909e-05	0.0148
x2 = 0.0177, x1 = 6.545e-05	0.0163
x2 = 0.0177, x1 = 7.135e-05	0.0176

[Cl-].[NH4+] + CC(=O)[O-].CC[n+]1ccn(C)c1
101 kPa
Settings	electrical conductivity [S/m]	viscosity [mPa·s]
298.15 K, x1 = 0.0505	0.234	172
303.15 K, x1 = 0.0505	0.308	124.6
313.15 K, x1 = 0.0999	0.431	91.7
313.15 K, x1 = 0.1702	0.341	142.8
318.15 K, x1 = 0.0505	0.622	55.4
323.15 K, x1 = 0.0505	0.755	44
